PMC3888718, “F-18 Labeled Vasoactive Intestinal Peptide Analogue in the PET Imaging of Colon Carcinoma in Nude Mice” (BioMed Research International, 2013)
Read-outs that look alike come from different tables or passages of the source. Where a SMILES comes first, the peptide text is derived from it. The star is where a group is joined. Benzoyl(4-F) = O=C(c1ccc(F)cc1)*

What was measured:
[1] = micro-PET imaging in C26 tumor bearing mice; format: in vivo; conditions: nude mice, tumor and muscle, total radioactivity, micro-PET; for tissue to tissue ratio at 1 h: 60 min after injection
Protocol: (§1) C26 tumor bearing mice were obtained by right subaxillary implantation and were used in PET imaging test when the tumor had grown to the size of about 1 cm. PET imaging test in small animals was performed on a micro-PET R4 scanner (Concorde Microsystems, Siemens, Germany). After sodium pentobarbital anesthesia, C26 tumor bearing mice were injected with 1.5 MBq (40 μCi) [F-18]FB-[R^8,15,21, L^17]-VIP and placed in the central zone of the micro-PET device separately at 5 min, 60 min, and 120 min following injection. They underwent static scanning for 10 min at different points. The original data obtained were transformed into 2D image by Fourier transform and 2D FBP reconstruction.
(§2) Blocking experiment was conducted to explore whether [F-18]FB-[R^8,15,21, L^17]-VIP was receptor-specific. 100 μg of nonlabeled VIP polypeptide mixed with 40 μCi [F-18]FB-[R^8,15,21, L^17]-VIP was injected into each C26 tumor bearing mouse. The imaging experiment with blocking was performed 60 min following injection, using scanning for 10 min and the same procedures and data treatment process as above.

C26 colon carcinoma = experiment: micro-PET imaging in C26 tumor bearing mice; format: in vivo; conditions: micro-PET images, C26 tumor bearing mice
Protocol: as §1, §2

[2] = tissue distribution test in normal BALB/C mice; format: in vivo; conditions: 100 μCi tail vein, 5-120 min, γ counter, n = 5 per group
Protocol: All animal experiments followed the laboratory animal specifications of Zhongshan Hospital, Fudan University. In order to obtain preliminary in vivo pharmacokinetics data of this radiolabeled polypeptide, 100 μL 3.7 MBq (100 μCi) [F-18]FB-[R^8,15,21, L^17]-VIP was injected into each normal BALB/C mouse through tail vein. 20 mice were assigned to 4 groups evenly. At 5, 30, 60, and 120 min following injection, they were sacrificed under anesthesia. Mice in each group were immediately subject to autopsy, where the organs and tissues of interest, including brain, liver, kidneys, heart, lungs, spleen, stomach, small intestine, muscles, bones, and blood, were collected. All the tissue samples were weighed and their counting were measured by γ counter, so that the percent injected dose per each gram of tissue (% ID/g) was derived.

[3] = system: colon carcinoma cells LS174T; conditions: mouse, in vivo; cited from earlier work
Excerpt: Like other neuropeptides, VIP is quickly metabolized in liver and excreted from kidneys. Given this, when VIP is to be used as an imaging agent, chemical modification of its structure is mandatory to extend the biological half-life in order to meet the imaging requirement. […] Pallela et al. labeled VIP analogue (TP3654) by ^99mTc and conducted animal distribution and imaging tests in nude mice transpla ...

VIP receptor = conditions: cited from earlier work
Excerpt: (§3) Since Virgolin initially reported use of ^123I labeled VIP in the imaging study of tumor VIP receptors, several potential ^123I, ^99 mTc, F-18, and ^64Cu labeled VIP analogues have been developed. […] Therefore, our early efforts mainly focused on the structural modification for improving in vivo stability of VIP polypeptide and a series of studie ...

[4] = cited from earlier work
Excerpt: as §3

CC[C@H](C)[C@H](NC(=O)[C@H](CO)NC(=O)[C@H](CC(N)=O)NC(=O)[C@H](CC(C)C)NC(=O)[C@H](Cc1ccc(O)cc1)NC(=O)[C@H](CCCNC(=N)N)NC(=O)[C@H](CCCCNC(=O)c1ccc(F)cc1)NC(=O)[C@@H](NC(=O)[C@H](C)NC(=O)[C@H](CC(C)C)NC(=O)[C@H](CCC(N)=O)NC(=O)[C@H](CCCNC(=N)N)NC(=O)[C@H](CCCNC(=N)N)NC(=O)[C@H](CC(C)C)NC(=O)[C@H](CCCNC(=N)N)NC(=O)[C@@H](NC(=O)[C@H](Cc1ccc(O)cc1)NC(=O)[C@H](CC(N)=O)NC(=O)[C@H](CCCNC(=N)N)NC(=O)[C@@H](NC(=O)[C@H](Cc1ccccc1)NC(=O)[C@@H](NC(=O)[C@H](C)NC(=O)[C@H](CC(=O)O)NC(=O)[C@H](CO)NC(=O)[C@@H](N)Cc1c[nH]cn1)C(C)C)[C@@H](C)O)[C@@H](C)O)C(C)C)C(=O)N[C@@H](CC(C)C)C(=O)N[C@@H](CC(N)=O)C(N)=O [[F-18]FB-[R^8,15,21, L^17]-VIP] (H-HSDAVFTRNYTRLRRQLAVK(Benzoyl(4-F))RYLNSILN-NH2; N-terminus assumed)
tissue to tissue ratio at 5 min ([1]; mouse, iv, 40 uCi, C26 tumor bearing mice, 40 μCi i.v., 5 min after injection, 10 min static scan, read-out: tumor-to-muscle ratio (T/M)): 1.84
tissue to tissue ratio at 1 h ([1]; mouse, iv, 40 uCi, C26 tumor bearing mice, 40 μCi, unblocked, read-out: tumor-to-muscle ratio (T/M)): 3.03
tissue to tissue ratio at 2 h ([1]; mouse, iv, 40 uCi, C26 tumor bearing mice, 40 μCi, 120 min after injection, read-out: tumor-to-muscle ratio (T/M)): 3.74
tissue to tissue ratio at 1 h ([1]; C26 tumor bearing mouse, 40 μCi mixed with 100 μg nonlabeled VIP, read-out: tumor-to-muscle ratio (T/M), blocking experiment): 1.01
passage through the blood-brain barrier (C26 colon carcinoma): could not pass through the blood-brain barrier
bone absorption (in vivo defluorination stability) (C26 colon carcinoma; up until 120 min): no marked bone absorption
bone absorption (defluorination stability) [2]: low bone absorption

^125I-VIP: ^125I labeled vasoactive intestinal peptide
tumor/blood ratio (T/B) [3]: 0.88 ± 0.16
tumor/muscle ratio (T/M) [3]: 0.38 ± 0.56

H-HSDAVFTRNYTRLRRQLAVKRYLNSILN-NH2 [[R^8,15,21, L^17]-VIP, VIP analogue, 28-residue peptide amide, precursor for F-18 labeling]
receptor affinity in comparison to native VIP (VIP receptor): higher
in vivo stability in comparison to native VIP [4]: higher
